Among the data in patent EP2435433B1, “(DIHYDRO)IMIDAZOISO[5,1-A]QUINOLINES AS FSH RECEPTOR AGONISTS FOR THE TREATMENT OF FERTILITY DISORDERS” (Merck Sharp & Dohme B.V., priority 2009, dated 2010) are EC50 values, retold here.

The assay concerns the target T1, human FSH receptor (Homo sapiens, UniProt P23945).
T1 construct: expressed in transfected cells; host or cells: Chinese Hamster Ovary (CHO) cells, stably transfected, cotransfected with CRE/promotor-firefly luciferase reporter
T1 sequence (P23945 18-695): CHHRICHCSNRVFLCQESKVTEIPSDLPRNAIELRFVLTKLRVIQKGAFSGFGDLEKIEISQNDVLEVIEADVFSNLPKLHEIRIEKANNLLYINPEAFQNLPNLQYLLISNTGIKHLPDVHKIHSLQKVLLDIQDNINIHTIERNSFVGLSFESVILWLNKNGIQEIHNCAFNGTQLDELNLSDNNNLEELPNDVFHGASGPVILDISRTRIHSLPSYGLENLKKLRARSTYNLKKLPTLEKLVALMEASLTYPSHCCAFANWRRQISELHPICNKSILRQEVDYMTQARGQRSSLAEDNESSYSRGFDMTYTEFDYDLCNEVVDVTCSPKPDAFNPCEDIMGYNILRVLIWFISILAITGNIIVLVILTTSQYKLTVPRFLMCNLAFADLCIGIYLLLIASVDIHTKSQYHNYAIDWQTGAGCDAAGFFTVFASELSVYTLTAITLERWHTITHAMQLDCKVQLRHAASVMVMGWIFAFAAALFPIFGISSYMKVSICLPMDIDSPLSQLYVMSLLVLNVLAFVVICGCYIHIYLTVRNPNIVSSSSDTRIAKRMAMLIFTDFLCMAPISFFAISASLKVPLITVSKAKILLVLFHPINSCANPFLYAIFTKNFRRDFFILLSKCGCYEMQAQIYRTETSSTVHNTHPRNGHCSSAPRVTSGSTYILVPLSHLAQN
In words: Agonistic activity of compounds at the human FSH receptor expressed in CHO cells, CRE/luciferase reporter (hFSHRago (CHO luc)). The note with it: CHO cells stably transfected with the human FSH receptor and CRE/firefly luciferase reporter; 4 hours of incubation; half-maximal stimulation relative to the compound's own maximal effect; read-out: hFSHRago (CHO luc) EC50. It is filed as cell-based. Summed up:
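CHO cells stably expressing human FSH receptor with CRE/firefly luciferase reporter, incubated 4 h at 37 °C with compounds (0.0316 nM–10.0 µM, duplicate, 1% DMSO final) in insulin/apo-transferrin-supplemented medium. Luminescence read after lysis; EC50 relative to compound's own maximum, efficacy as % of recombinant human FSH maximum.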

The term EC50 denotes the concentration giving half of the maximal effect. As for `COc1cc2c(cc1SC(C)C)-c1c(-c3cccs3)nc(C(=O)N(C)C(C)(C)C)n1CC2` [Example 52c, 9-Isopropylsulfanyl-8-methoxy-1-thiophen-2-yl-5,6-dihydro-imidazo[5,1-a]isoquinoline-3-carboxylic acid tert-butyl-methyl-amide], the EC50 was found to be 16 nM.

Take `COc1cc2c(cc1NC(=O)[C@H](C)N)-c1c(-c3cccs3)nc(C(=O)N(C)C(C)(C)C)n1CC2` [Example 8, 9-((S)-2-Amino-propionylamino)-8-methoxy-1-thiophen-2-yl-5,6-dihydro-imidazo[5,1-a]isoquinoline-3-carboxylic acid tert-butyl-methyl-amide]: the EC50 worked out at 49 nM.
